The subject of the experiment is PMA-induced release of IL-6R from U-937 cells. The experiment can be described thus: ELISA-based IL-6R release assay, PMA-stimulated U-937 cells. The conditions noted are these: Homo sapiens, U-937, 1 h, Batimastat 10 μM, PMA 62.5 ng/ml. It is filed as cell-based. On the procedure: Complementary to Example 26 described above, ELISA-based IL-6R release assays were performed to verify the inhibitory effects of the antibodies of the present disclosure on PMA-induced release of endogenous IL-6R from human U-937 cells.
In brief, on day 1, Nunc black MaxiSorp® 96-well plates (Thermo Fisher Scientific, USA) were coated overnight with 100 μl per well of mouse anti-human IL-6R capture antibody (provided as part of the DuoSet ELISA kit) at 2 μg/ml TBS at 4° C. On day 2, the capture antibody solution was removed and MaxiSorp® plates were blocked with 300 μl per well of TBS, 1% BSA at room temperature for 1-2 hours. […] Using an infinite M1000 (Tecan Group, Switzerland) microplate reader, the fluorescence of each well was collected at an excitation wavelength of 435 nm and an emission wavelength of 555 nm. […]
(In general: An ELISA detects its analyte on a solid surface through an enzyme-linked reagent.)

The inhibition is the percentage by which the read-out fell short of the control. With `CNC(=O)[C@H](Cc1ccccc1)NC(=O)[C@H](CC(C)C)[C@H](CSc1cccs1)C(=O)NO` [Batimastat], the inhibition at 10 µM reads like this: (murine (m) and chimeric (ch) antibodies 3 μg/ml) 91.6%; (recombinant murine antibodies 1 μg/ml) 86.6%.

The values above are taken from patent US20240174744A1, “METHODS OF TREATMENT USING PROTEIN BINDERS TO IRHOM2 EPITOPES” (SCIRHOM GMBH, priority 2021, published 2024).
